PubChem BioAssay (NCI)
Values joined by “and” are separate entries in the source; they are usually repeats but may differ in a detail not shown here. Equal values may be shown once.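 Method: 48-hour compound exposure of cells in 96-well plates, five concentrations, linear interpolation of endpoints. GI50 = concentration required for 50% inhibition of growth. TGI denotes the concentration required for complete inhibition of growth.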

Key:
Experiment in all cases: NCI-60 cell line screen, 48 h
[1] = system: HCT-15 colon
[2] = system: HOP-92 NSCLC
[3] = system: UACC-62 melanoma
[4] = system: NCI/ADR-RES ovarian
[5] = system: OVCAR-4 ovarian
[6] = system: SK-MEL-28 melanoma
[7] = system: A549 NSCLC
[8] = system: MALME-3M melanoma
[9] = system: UACC-257 melanoma
[10] = system: CAKI-1 renal

Row | Compound | GI50 [1] [µM] | TGI [1] | GI50 [2] [µM] | TGI [2] | GI50 [3] [µM] | TGI [3] | GI50 [4] [µM] | TGI [4] | GI50 [5] [µM] | TGI [5] | GI50 [6] [µM] | TGI [6] | GI50 [7] [µM] | TGI [7] | GI50 [8] [µM] | TGI [8] | GI50 [9] [µM] | TGI [9] | GI50 [10] [µM] | TGI [10]
1 | COc1cc2c(cc1Cc1cccc(Cl)c1F)c(=O)c(C(=O)O)cn2[C@@H](CO)C(C)C | 3.64 | 14.4 µM | 1.45 | 6.34 µM | 2.74 | 10.1 µM | 4.99 | 19.4 µM | 3.7 | 16.6 µM | 6.63 | 21.9 µM | 3.11 | 12.2 µM | 5.16 | 18.9 µM | 3.23 | 14 µM | 3.28 | 12.7 µM
2 | S=C(NCCNC(=S)[S][Sn]([c]1ccccc1)([c]1ccccc1)[c]1ccccc1)[S][Sn]([c]1ccccc1)([c]1ccccc1)[c]1ccccc1 | 0.0177 | 0.0696 µM | 0.0102 | 0.0493 µM | 0.0231 | 0.104 µM | 0.0184 | 0.0976 µM | 0.0212 | 0.0805 µM | 0.0237 | 0.0817 µM | 0.0231 | 0.0938 µM | 0.0687 | 0.201 µM | 0.0522 | 0.117 µM | 0.0386 | 0.146 µM
3 | CC1=CCCC2C1(C)CCC(C)C2(C)Cc1cc(O)ccc1O (configuration not stated) | 6.04 | 25.8 µM and 23.7 µM |  | 22.6 µM and 15.2 µM | 13 | 28.7 µM and 24.5 µM |  | 18.2 µM and 18.9 µM | 3.58 | 24.8 µM and 10.8 µM |  | 29.9 µM and 31.1 µM | 7.14 | 20.5 µM and 21.6 µM | 14.7 | 29.2 µM and 35.7 µM | 9.99 | 29.1 µM and 26.4 µM | 14.1 | 27.2 µM and 22.5 µM
4 | COC(=O)C1=CO[C@@H](OC2OC(CO)C(O)C(O)C2O)[C@H]2[C@@H](C)[C@@H](O)[C@@H](O)[C@@H]12 (some centres not stated) |  | > 100 µM |  | > 100 µM |  | > 100 µM |  | > 100 µM |  | > 100 µM |  | > 100 µM |  | > 100 µM |  | > 100 µM |  | > 100 µM |  | > 100 µM
5 | Cc1ccc(-c2cc3c4c(nc5ccccc53)C(=O)c3cccnc3-c4n2)cc1 | 12.7 | 49.9 µM | 26.5 | > 100 µM | 16 | 31.1 µM | 14.3 | 49.7 µM | 15.6 | 73.8 µM | 19.1 | 41.1 µM | 4.02 | 16.2 µM | 17.8 | 32.6 µM | 6.01 | 20.8 µM | 29.7 | > 100 µM
6 | CC(C)(C)[Si](C)(C)OC1[C@@H](O[Si](C)(C)C(C)(C)C)[C@@H](CNC(=O)NC(=O)CF)O[C@H]1n1cnc2c(NC(=O)Nc3ccccc3)ncnc21 (some centres not stated) | 11.2 | > 50 µM | 6.48 | 19.8 µM | 31.2 | > 50 µM | 48.5 | > 50 µM | 6.18 | > 50 µM | > 50 | > 50 µM | 6.92 | > 50 µM | 30.8 | > 50 µM | 20 | > 50 µM | 27.3 | > 50 µM
